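Briefly, cells in 96-well plates were exposed to five compound concentrations for 48 h, and endpoints were estimated by linear interpolation. GI50 is the concentration that inhibits growth by half.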 Calls of active or inactive are those of the source. Rule as the data show it: active = GI50 up to about 1.1 µM and inactive = higher. Some results are limits rather than exact numbers.

Assay in all cases: growth of human tumour cells (NCI), 48 h
In test [1] the test system is A498.
In test [2] the test system is ACHN.
In test [3] the test system is BT-549.
The test system of test [4] is COLO 205.
For test [5], the system named is HOP-62.
The test system of test [6] is MDA-MB-231.
The test system of test [7] is MDA-N.
Test [8] concerns MOLT-4.
Test [9] concerns Malme-3M.
For test [10], the system named is NCI-H226.
In test [11] the test system is SK-MEL-28.
Test [12] deals with SNB-19.
Test [13] deals with SR.
Test [14] deals with SW-620.
In test [15] the test system is T47D.
For test [16], the system named is UACC-257.
The test system of test [17] is MCF7.
In test [18] the test system is LOX IMVI.
Test [19] has as its system NCI/ADR-RES.

For the molecule `CC1(C)CC2(C)CC1CC2(O)c1ccccc1` (stereo unspecified), the GI50 in test [1], in test [2], in test [3], in test [4], in test [5] and in test [6] was > 100 µM (inactive) each time. For the same molecule, the GI50 in test [7], in test [8], in test [9], in [10], in test [11] and in [12] was > 100 µM (inactive) throughout. Moreover, the GI50 in [13], in test [14], in test [15] and in test [16] was > 100 µM (inactive) in each case.
`C=CCCC1CCCNC1=S` (stereo unspecified): the GI50 in [1], in [2], in [3], in [4], in test [5] and in [17] was > 100 µM (inactive) in each case. Also, the GI50 in test [6], in [7], in [10], in test [11], in test [12] and in test [14] was > 100 µM (inactive) in each case. The GI50 in [15] and in test [16] was > 100 µM (inactive) each time.
Turning to `O=Cc1c(C(=O)O)[nH]c(=O)[nH]c1=O`, the GI50 in test [1], in test [2], in test [3], in test [4], in [18] and in test [6] was > 100 µM (inactive) each time. Moreover, the GI50 in test [7], in test [8], in [9], in [10], in test [19] and in test [11] was > 100 µM (inactive) each time. The GI50 in [12] was > 100 µM (inactive); in test [13], > 10 µM (inactive); in test [14], > 100 µM (inactive); in test [16] it was > 100 µM (inactive).
In the case of `CC(=O)NC1C(OCc2ccccc2)OC(CO)C(O)C1OCC(=O)N1CCCC1C(=O)N[C@@H](CCC(=O)NCCCCNc1c2ccccc2nc2cccc([N+](=O)[O-])c12)C(N)=O` (stereo partly specified), the GI50 in [1] is 35.7 µM (inactive); in test [2], 26.6 µM (inactive); in [3], 17.9 µM (inactive); in [4], 18.6 µM (inactive); in test [5], 37.9 µM (inactive); in [17], 9.1 µM (inactive). Moreover, the GI50 was 14.8 µM (inactive) in test [7]; 32.5 µM (inactive) in test [8]; 33.3 µM (inactive) in test [9]; 74 µM (inactive) in test [10]; > 100 µM (inactive) in test [19]; 81.8 µM (inactive) in [11]. Also, the GI50 in test [12] was 17.7 µM (inactive); in [13], 20.1 µM (inactive); in test [14] it was 11.5 µM (inactive); in test [15] it was 27.4 µM (inactive).
For `CSCSSC`, the GI50 in test [1] was 0.0231 µM (active); in test [2], > 100 µM (inactive); in [3], > 100 µM (inactive); in test [4] it was > 100 µM (inactive); in test [5], > 100 µM (inactive); in test [18], 17.7 µM (inactive). Also, the GI50 in test [7] was > 93.3 µM (inactive); in test [8] it was 4.67 µM (inactive); in [9], 77.1 µM (inactive); in test [10], > 100 µM (inactive); in test [19], > 100 µM (inactive); in [11], > 57.3 µM (inactive). Besides, the GI50 in test [12] is > 100 µM (inactive); in test [13] it was 30.7 µM (inactive); in [14], 49.4 µM (inactive); in [15], > 100 µM (inactive); in [16], > 100 µM (inactive).
Turning to `O=C(N/N=C/c1ccc(Cl)cc1)c1c(Cl)c(Cl)c(Cl)c(Cl)c1-c1nc2ccccc2[nH]1`, the GI50 was 98.2 µM (inactive) in test [1]; 64.6 µM (inactive) in [2]; > 100 µM (inactive) in [3]; > 100 µM (inactive) in test [4]; 0.0452 µM (active) in test [5]; 41.1 µM (inactive) in test [18]. Moreover, the GI50 was 16.2 µM (inactive) in [17]; 56.8 µM (inactive) in test [7]; 40.2 µM (inactive) in test [8]; > 100 µM (inactive) in test [9]; 0.224 µM (active) in test [10]; > 100 µM (inactive) in test [19]. Moreover, the GI50 in [11] was > 100 µM (inactive); in [12], > 100 µM (inactive); in [13] it was 59.2 µM (inactive); in [14], > 100 µM (inactive); in [15] it was 4.47 µM (inactive).
`O=C1C(c2c(O)[nH]c3ccc(F)cc23)=Nc2ccccc21`: the GI50 in test [2] is > 100 µM (inactive); in test [3], > 100 µM (inactive); in [4] it was > 100 µM (inactive); in test [5], 46.2 µM (inactive); in test [18], > 100 µM (inactive); in test [17], 6.56 µM (inactive). Also, the GI50 in [6] is 12.9 µM (inactive); in test [7], > 100 µM (inactive); in test [8], 21.1 µM (inactive); in test [9] it was > 100 µM (inactive); in test [10], > 100 µM (inactive); in test [19], > 100 µM (inactive). For the same molecule, the GI50 was > 100 µM (inactive) in [11]; 26.5 µM (inactive) in test [12]; > 100 µM (inactive) in [13]; > 100 µM (inactive) in test [14]; > 100 µM (inactive) in [16].
For `Cc1ccccc1/N=N/c1cc(C)c(/N=N/c2c(O)ccc3ccccc23)cc1C`, the GI50 in [1], in [2], in test [3], in [4], in test [5] and in test [18] was > 100 µM (inactive) each time. The GI50 in test [6], in test [7], in test [8], in test [9], in [10] and in [19] was > 100 µM (inactive) each time. The GI50 in test [11], in [12], in test [14], in test [15] and in [16] was > 100 µM (inactive) in each case.
Consider `N[C@@H]1CCN(c2c(F)cc3c(=O)c(C(=O)O)cn4c3c2Oc2c-4ccc3c2ccc2ccccc23)C1`, for which the GI50 is 11.9 µM (inactive) in [1]; 0.305 µM (active) in test [2]; > 100 µM (inactive) in test [3]; 2.99 µM (inactive) in test [4]; 1.38 µM (inactive) in test [5]; 1.68 µM (inactive) in test [18]. The GI50 in test [17] is 0.667 µM (active); in test [7], 1.55 µM (inactive); in test [8], 4 µM (inactive); in test [10], 19.9 µM (inactive); in [19] it was 23.2 µM (inactive); in test [11], > 100 µM (inactive). In addition, the GI50 in test [12] was 0.344 µM (active); in [13] it was 0.225 µM (active); in test [14] it was 0.671 µM (active); in [16], 5.42 µM (inactive).

Source of the values: ChEMBL document CHEMBL1201862, “PubChem BioAssay data set” (2004).
